Read-outs that look alike come from different tables or passages of the source.
Assays:
[1] = system: p-ERK in TCC-PAN2 cells (K-Ras G12R); assay: Phospho-ERK1/2(THR202/TYR204) HTRF assay, TCC-PAN2; format: cell-based; details: 2 hours incubation
[2] = system: NCI-H358 cells (K-Ras G12C)
[3] = system: NCI-H460 cells (K-Ras Q61H); assay: 3D cell growth inhibition assay, NCI-H460; format: cell-based; details: Homo sapiens, 144 h, 6 days, absolute IC50
[4] = system: TCC-PAN2 cells (K-Ras G12R); assay: 3D cell growth inhibition assay, TCC-PAN2; format: cell-based; details: 144 h, 6 days, absolute IC50
[5] = system: p-ERK in SW620 cells (K-Ras G12V); assay: Phospho-ERK1/2(THR202/TYR204) HTRF assay, SW620; format: cell-based; details: Homo sapiens, SW-620, 2 h, 2 hours incubation
[6] = system: AsPC-1 cells (K-Ras G12D); assay: 2D cell growth inhibition assay, AsPC-1; format: cell-based; details: Homo sapiens, ASPC1, 144 h, AsPC-1, K-Ras G12D, 6 days, absolute IC50
[7] = system: NCI-H747 cells (K-Ras G13D)
[8] = system: Capan-2 cells (K-Ras G12V)
[9] = system: SW620 cells (K-Ras G12V); assay: 2D cell growth inhibition assay, SW620; format: cell-based; details: Homo sapiens, SW-620, 144 h, 6 days, absolute IC50
[10] = system: p-ERK in NCI-H460 cells (K-Ras Q61H); assay: Phospho-ERK1/2(THR202/TYR204) HTRF assay, NCI-H460; format: cell-based; details: Homo sapiens, 2 hours incubation
[11] = system: p-ERK in NCI-H747 cells (K-Ras G13D)
[12] = system: RERF-LC-Ad1 cells (K-Ras G12A)
[13] = system: AGS cells (K-Ras G12D); assay: 2D cell growth inhibition assay, AGS; format: cell-based; details: Homo sapiens, 144 h, 6 days, absolute IC50
[14] = system: MKN-1 cells (K-Ras WT); assay: 3D cell growth inhibition assay, MKN-1; format: cell-based; details: Homo sapiens, 144 h, MKN-1, K-Ras WT, 6 days, absolute IC50
[15] = system: p-ERK in AGS cells (K-Ras G12D); assay: Phospho-ERK1/2(THR202/TYR204) HTRF assay, AGS; format: cell-based; details: Homo sapiens, 2 h, 2 hours incubation
[16] = system: p-ERK in NCI-H358 cells (K-Ras G12C); assay: Phospho-ERK1/2(THR202/TYR204) HTRF assay, NCI-H358; format: cell-based; details: Homo sapiens, 2 hours incubation
[17] = system: p-ERK in MKN-1 cells (K-Ras WT amplification); assay: Phospho-ERK1/2(THR202/TYR204) HTRF assay, MKN-1; format: cell-based; details: Homo sapiens; MKN-1, K-Ras WT, 2 hours incubation
[18] = biological target: T1, K-Ras G12D (Homo sapiens, UniProt P01116, G12D); assay: biochemical
T1 sequence (P01116 1-169 isoform P01116-2 G12D): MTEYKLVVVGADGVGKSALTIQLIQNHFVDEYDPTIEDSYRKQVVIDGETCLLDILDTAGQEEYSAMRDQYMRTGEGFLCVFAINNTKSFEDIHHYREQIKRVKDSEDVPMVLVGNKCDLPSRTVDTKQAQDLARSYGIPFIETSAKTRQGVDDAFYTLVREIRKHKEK

[19] = biological target: T2, K-Ras G12V (Homo sapiens, UniProt P01116, G12V); assay: SOS1 catalyzed nucleotide exchange assay (GDP form K-Ras), K-Ras G12V; details: read-out: K-Ras G12V GDP Biochemical Activity (IC50)
T2 sequence (P01116 1-169 isoform P01116-2 G12V): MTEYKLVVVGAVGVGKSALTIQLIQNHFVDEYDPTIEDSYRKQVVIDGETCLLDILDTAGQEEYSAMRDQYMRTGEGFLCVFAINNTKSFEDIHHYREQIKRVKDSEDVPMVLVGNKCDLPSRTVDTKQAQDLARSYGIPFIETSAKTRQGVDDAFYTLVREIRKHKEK

[20] = biological target: T2, K-Ras G12V; assay: biochemical
[21] = biological target: T1, K-Ras G12D; assay: biochemical; remark: listed apart in the source

SMILES | IC50 [1] [nM] | IC50 [2] [nM] | IC50 [3] [nM] | IC50 [5] [nM] | IC50 [6] [nM] | IC50 [7] [nM] | IC50 [8] [nM] | IC50 [9] [nM] | IC50 [10] [nM] | IC50 [11] [nM] | IC50 [12] [nM] | IC50 [13] [nM] | IC50 [14] [nM] | IC50 [15] [nM] | IC50 [16] [nM] | IC50 [17] [nM] | IC50 [18] [nM] | IC50 [19] [nM] | IC50 [20] [nM] | IC50 [4] [nM] | further results
C#Cc1c(F)ccc2cc(O)cc(-c3ncc4c(N5CCCO[C@@H]6C[C@@H]65)nc(OC[C@@]56CCCN5C[C@H](F)C6)nc4c3F)c12 (single isomer, unassigned) [Compound 7B] | 13.5 | 2.57 | 17.9 | 1.01 | 2.73 | 0.807 | 2.91 | 0.858 | 1.66 | 0.701 | 2.52 | 0.423 | 3.7 | 0.255 | 0.881 | 1 | – | – | – | 41 | –
C#Cc1c(F)ccc2cc(O)cc(-c3nc([S+](C)[O-])c4c(N5CCCOCC5)nc(OC[C@@]56CCCN5C[C@H](F)C6)nc4c3F)c12 (stereo partly drawn) [Compound 127, 5-ethynyl-6-fluoro-4-(8-fluoro-2-(((2R,7aS)-2-fluorotetrahydro-1H-pyrrolizin-7a(5H)-yl)methoxy)-5-(methylsulfinyl)-4-(1,4-oxazepan-4-yl)pyrido[4,3-d]pyrimidin-7-yl)naphthalen-2-ol] | – | – | – | – | – | – | – | – | – | – | – | – | – | – | – | – | 93.1 | 88.5 | > 1000 | – | IC50 [21]: > 1000 nM
C#Cc1c(F)ccc2cc(O)cc(-c3ncc4c(N5CCCOCC5)nc(OC[C@@]56CCCN5C[C@H](F)C6)nc4c3F)c12 [Compound 1, 5-ethynyl-6-fluoro-4-(8-fluoro-2-(((2R,7aS)-2-fluorotetrahydro-1H-pyrrolizin-7a(5H)-yl)methoxy)-4-(1,4-oxazepan-4-yl)pyrido[4,3-d]pyrimidin-7-yl)naphthalen-2-ol trifluoroacetic acid] | 207 | – | 75.1 | 2.74 | 43.8 | 5.65 | 28.7 | 4.68 | 7.04 | 1.64 | 20.6 | 2.45 | 8.23 | 0.974 | 2.2 | 1.34 | – | – | – | 189 | –
C#Cc1c(F)ccc2cc(O)cc(-c3nc(OCC)c4c(N5CCCOCC5)nc(OC[C@@]56CCCN5C[C@H](F)C6)nc4c3F)c12 [Compound 66, 4-(5-ethoxy-8-fluoro-2-(((2R,7aS)-2-fluorotetrahydro-1H-pyrrolizin-7a(5H)-yl)methoxy)-4-(1,4-oxazepan-4-yl)pyrido[4,3-d]pyrimidin-7-yl)-5-ethynyl-6-fluoronaphthalen-2-ol] | 121 | 26 | 53.2 | 2.74 | 50.3 | 10.4 | 12.3 | 7.33 | 12.8 | 4.41 | 26.6 | 3.86 | 23.9 | 1.15 | 3.48 | 7.81 | – | – | – | 621 | –

More lines, main results first:

IC50 [1] [nM] | IC50 [2] [nM] | IC50 [3] [nM] | IC50 [5] [nM] | IC50 [6] [nM] | IC50 [7] [nM] | IC50 [8] [nM] | IC50 [9] [nM] | IC50 [10] [nM] | IC50 [11] [nM] | IC50 [12] [nM] | IC50 [13] [nM] | IC50 [14] [nM] | IC50 [15] [nM] | IC50 [16] [nM] | IC50 [17] [nM] | IC50 [18] [nM] | IC50 [19] [nM] | IC50 [20] [nM] | SMILES | IC50 [4] [nM] | further results
– | – | – | – | 1070 | – | – | – | – | – | – | 521 | – | 83.1 | – | – | 9.63 | 19.8 | > 1000 | C#Cc1c(F)ccc2cc(O)cc(-c3nc(C#N)c4c(N5CCCOCC5)nc(OC[C@@]56CCCN5C[C@H](F)C6)nc4c3F)c12 [Compound 129, 7-(8-ethynyl-7-fluoro-3-hydroxynaphthalen-1-yl)-8-fluoro-2-(((2R,7aS)-2-fluorotetra-hydro-1H-pyrrolizin-7a(5H)-yl)methoxy)-4-(1,4-oxazepan-4-yl)pyrido[4,3-d] pyrimidine-5-carbonitrile] | – | IC50 [21]: > 1000 nM
560 | 62.6 | 866 | 18.7 | 380 | 56 | 311 | 34.1 | 63.8 | 17.6 | 150 | 40.6 | 28.1 | 14.9 | 2.53 | 19.5 | – | – | – | C#Cc1c(F)ccc2cc(O)cc(-c3ncc4c(N5CCCOCC5)nc(OC[C@@]56CCCN5C[C@H](OC)C6)nc4c3F)c12 [Compound 11, 5-ethynyl-6-fluoro-4-(8-fluoro-2-(((2R,7aS)-2-methoxytetrahydro-1H-pyrrolizin-7a(5H)-yl)methoxy)-4-(1,4-oxazepan-4-yl)pyrido[4,3-d]pyrimidin-7-yl)naphthalen-2-ol] | > 1000 | –
31 | 2.32 | 39.8 | 2.21 | 12.8 | 3.17 | 7.34 | 1.33 | 2.95 | 0.919 | 5.2 | 0.778 | 3.46 | 0.82 | 1.67 | 3.44 | – | – | – | C#Cc1c(F)ccc2cc(O)cc(-c3ncc4c(N5CCCOC6CC65)nc(OC[C@@]56CCCN5C[C@H](F)C6)nc4c3F)c12 (stereo partly drawn) [Compound 7, 4-(4-(2-oxa-6-azabicyclo[5.1.0]octan-6-yl)-8-fluoro-2-(((2R,7aS)-2-fluorotetrahydro-1H-pyrrolizin-7a(5H)-yl)methoxy)pyrido[4,3-d]pyrimidin-7-yl)-5-ethynyl-6-fluoronaphthalen-2-ol] | 165 | –
– | – | – | – | – | – | – | – | – | – | – | – | – | – | – | – | 76.7 | 84.6 | > 1000 | Oc1cc2c(c(-c3ncc4c(N5CCCOCC5)nc(OC[C@@]56CCCN5C[C@H](F)C6)nc4c3F)c1)N(CC(F)F)CCC2 [Compound 126, 1-(2,2-difluoroethyl)-8-(8-fluoro-2-(((2R,7aS)-2-fluorotetrahydro-1H-pyrrolizin-7a(5H)-yl)methoxy)-4-(1,4-oxazepan-4-yl)pyrido[4,3-d]pyrimidin-7-yl)-1,2,3,4-tetrahydroquinolin-6-ol] | – | IC50 [21]: > 1000 nM
74.9 | 14.8 | 37.2 | 4.31 | 29.2 | 9.7 | 7.15 | 3.03 | 7.82 | 2.94 | 25.9 | 1.61 | 11 | 0.81 | 1.24 | 3.71 | – | – | – | C#Cc1c(F)ccc2cc(O)cc(-c3nc(OC)c4c(N5CCCOCC5)nc(OC[C@@]56CCCN5C[C@H](F)C6)nc4c3F)c12 [Compound 65, 5-ethynyl-6-fluoro-4-(8-fluoro-2-(((2R,7aS)-2-fluorotetrahydro-1H-pyrrolizin-7a(5H)-yl)methoxy)-5-methoxy-4-(1,4-oxazepan-4-yl)pyrido[4,3-d]pyrimidin-7-yl)naphthalen-2-ol trifluoroacetic acid] | 275 | –
